Data from patent US9550796B2, “Pyrrolopyrrolone derivatives and their use as BET inhibitors” (NOVARTIS AG, priority 2013, dated 2017).

Key:
CREBBP = CREBBP (Homo sapiens (Human), UniProt Q92793); experiment: AlphaScreen in-vitro binding assay for CREBBP; settings: 324 nM His-CREBBP (1081-1197), acetyl-histone H4 (AcK 5, 8, 12) peptide
Method: AlphaScreen In-Vitro Binding Assay for CREBBP
In order to assess bromodomain selectivity, we set up a binding assay using the bromodomain encoded by the CREBBP gene. […] The assay was started by stepwise addition of 4.5 μL per well of bromo domain protein (50 mM HEPES, pH 7.5, 0.005% Tween20, 0.02% BSA, 150 mM NaCl, 324 nM His-CREBBP (1081-1197) (custom production at Viva Biotech Ltd.)) and 4.5 μL per well of peptide solution (50 mM HEPES, pH 7.5, 0.005% Tween20, 0.02% BSA, 150 mM NaCl, 120 nM acetyl-histone H4 (AcK 5, 8, 12) (Biosyntan GmbH)). Reactions were incubated at 30° C. for 35 minutes. Subsequently 4.5 μL per well detection mix (50 mM HEPES, pH 7.5, 0.005% Tween20, 0.02% BSA, 150 mM NaCl, 45 μg/ml Ni-chelate acceptor beads, 45 μg/mL streptavidin-donor beads) (Perkin Elmer)) were added. After 60 minutes incubation at room temperature, plates were measured in a Perkin Elmer EnVision multilabel reader. IC50 values were determined from percent inhibition values at different compound concentrations by non-linear regression analysis.
Test compounds were dissolved in DMSO (10 mM) and transferred into 1.4 mL flat bottom or V-shaped Matrix tubes carrying a unique 2D matrix. The stock solutions were stored at […] if not used immediately. For the test procedure the vials were defrosted and identified by a scanner whereby a working sheet was generated that guided the subsequent working steps. Compound dilutions were made in 96 well plates. This format enabled the assay of maximally […] at 8 concentrations (single points) including 4 reference compounds, if desired (known BET inhibitors from the prior art, for this and other assays of the type disclosed herein). The dilution protocol included the production of “pre-dilution plates”, “master plates” and “assay plates”.
Polypropylene 96-well plates were used as pre-dilution plates. A total of 4 pre-dilution plates were prepared including 10 test compounds each on the plate positions A1-A10, one standard compound at A11 and one DMSO control at […]. All dilution steps were done on a HamiltonSTAR robot.
30 μL of individual compound dilutions including standard compound and controls of the 4 “pre-dilution plates” were transferred into a 384-well “master plate” including the following concentrations 10000, […], 1000, 300, 100, 30, 10 and 3 μM, respectively in 90% of DMSO.
Identical “assay plates” were then prepared by pipetting 50 nL each of compound dilutions of the “master plates” into 384-well “assay plates” by means of a HummingBird 384-channel dispenser. These plates were used directly for the assay which was performed in a total volume of 13.55 μL.

K-562 = experiment: Cell growth inhibition assay (CellTiter-Glo), K-562; type: cell-based, human; settings: K-562 cells, 4 days; for GI50: Homo sapiens, K562, 96 h, half-maximal growth inhibition; for K-562 TGI: total growth inhibition
Method: (§1) Cell Growth Inhibition Assay
(§2) The human leukemia cell lines MV-4-11, THP-1 and K-562 were employed to characterize the effect of BET inhibitors on cellular proliferation and viability. Cells were obtained from the American Type Culture Collection (ATCC) and cultured at 37° C. in a humidified 5% CO2 incubator in the following media: MV-4-11: DMEM high glucose (Animed #1-26F01-I), 10% FCS (Animed #2-01F26-I), 4 mM L-Glutamine (Animed #5-10K50), 1 mM Sodium Pyruvate (Animed # G03625P), 1× Penicillin-Streptomycin (Animed # F12478P); K-562: Iscove's MEM (Animed #1-28F16-I), 10% FCS (Animed #2-01F26-I), 4 mM L-Glutamine (Animed #5-10K50), 1× Penicillin-Streptomycin (Animed # F12478P); THP-1: RPMI-1640 (Animed #1-41F01-I), 10% FCS (Animed #2-01F26-I), 2 mM L-Glutamine (Animed #5-10K50), 10 mM HEPES (Animed #5-31F100), 1 mM Sodium Pyruvate (Animed # G03625P), 1× Penicillin-Streptomycin (Animed # F12478P). The AML lines MV-4-11 and THP-1 are very sensitive to BET inhibitors and show massive cell death upon BET inhibition (Zuber et al., Nature, 478 (2011), 524-8). Compound-mediated suppression of cell proliferation/viability was assessed by quantification of cellular ATP levels using the CellTiter-Glo (CTG) reagent (Promega). Briefly, cells were seeded in 20 μl fresh medium into 384-well plates, followed by addition of 5 μL medium containing compound dilutions at 5-fold their final intended concentration. Dose-response effects were assessed by 3-fold serial dilutions of the test compound, starting at 10 μM. Following incubation of the cells for 4 days at 37° C. and 5% CO2, the effect of inhibitors on cell viability was quantified following addition of 20 μl CTG and luminescence quantification (integration time: 100 ms) as per vendor manual, using a correspondingly equipped Tecan M200 multi-mode platereader (TECAN, Switzerland). For data analysis, the assay background value determined in wells containing medium, but no cells, was subtracted from all data points. To enable differentiation of cytotoxic from cytostatic compounds, the number of viable cells is assessed relative to that observed at the time of compound addition using a separate cell plate (day 0). The effect of a particular test compound concentration on cell proliferation/viability is expressed as percentage of the background- and day 0-corrected luminescence reading obtained for cells treated with vehicle only (DMSO, 0.1% final concentration), which is set as 100%, whereas that luminescence reading for wells containing medium is set as −100%. Compound concentrations leading to half-maximal (IC50) and total growth inhibition (TGI) were determined using standard four parameter curve fitting.

MV-4-11 = experiment: Cell growth inhibition assay (CellTiter-Glo), MV-4-11; type: cell-based, human; settings: MV-4-11 cells, 4 days; for GI50: Homo sapiens, MV4-11, 96 h, half-maximal growth inhibition; for MV-4-11 TGI: total growth inhibition
Method: as §1, §2

THP-1 = experiment: Cell growth inhibition assay (CellTiter-Glo), THP-1; type: cell-based, human; settings: THP-1 cells, 4 days; for GI50: Homo sapiens, 96 h, half-maximal growth inhibition; for THP-1 TGI: total growth inhibition
Method: as §1, §2

BRD3 = BRD3 (Homo sapiens (Human), UniProt Q15059); experiment: TR-FRET in-vitro binding assay for BRD3; settings: 45 nM His-Brd3(20-477), acetyl-histone H4 (AcK 5, 8, 12, 16) peptide
Method: (§3) TR-FRET In-Vitro Binding Assays for BRD2, BRD3, and BRD4: All assays were performed in 384-well microtiter plates. […] Liquid handling and incubation steps were done on an Innovadyne Nanodrop Express equipped with a robotic arm (Thermo CatX, Perkin Elmer/Caliper Twister II) and an incubator (Liconic STX40, Thermo Cytomat 2C450). The assay plates were prepared by addition of 50 nl per well of compound solution in 90% DMSO HummingBird nanodispenser (Zinsser Analytic). […] Reactions were incubated at 30° C. for 35 minutes. […] After 35 minutes incubation at 30° C., plates were measured in a Perkin Elmer EnVision multilabel reader. […] The stock solutions were stored at […] if not used immediately. For the test procedure the vials were defrosted and identified by a scanner whereby a working sheet was generated that guided the subsequent working steps. Compound dilutions were made in 96 well plates. This format enabled the assay of maximally […] at 8 concentrations (single points) including 4 reference compounds, if desired (known BET inhibitors from the prior art, for this and other assays of the type disclosed herein). The dilution protocol included the production of “pre-dilution plates”, “master plates” and “assay plates”. Polypropylene 96-well plates were used as pre-dilution plates. […] All dilution steps were done on a HamiltonSTAR robot. […] Identical “assay plates” were then prepared by pipetting 50 nL each of compound dilutions of the “master plates” into 384-well “assay plates” by means of a HummingBird 384-channel dispenser. These plates were used directly for the assay which was performed in a total volume of 13.55 μL.

BRD4 = BRD4 (Homo sapiens (Human), UniProt O60885); experiment: TR-FRET in-vitro binding assay for BRD4; settings: 45 nM His-Brd4(44-477), acetyl-histone H4 (AcK 5, 8, 12, 16) peptide
Method: as §3

Chain of BRD3 (Q15059 20-477): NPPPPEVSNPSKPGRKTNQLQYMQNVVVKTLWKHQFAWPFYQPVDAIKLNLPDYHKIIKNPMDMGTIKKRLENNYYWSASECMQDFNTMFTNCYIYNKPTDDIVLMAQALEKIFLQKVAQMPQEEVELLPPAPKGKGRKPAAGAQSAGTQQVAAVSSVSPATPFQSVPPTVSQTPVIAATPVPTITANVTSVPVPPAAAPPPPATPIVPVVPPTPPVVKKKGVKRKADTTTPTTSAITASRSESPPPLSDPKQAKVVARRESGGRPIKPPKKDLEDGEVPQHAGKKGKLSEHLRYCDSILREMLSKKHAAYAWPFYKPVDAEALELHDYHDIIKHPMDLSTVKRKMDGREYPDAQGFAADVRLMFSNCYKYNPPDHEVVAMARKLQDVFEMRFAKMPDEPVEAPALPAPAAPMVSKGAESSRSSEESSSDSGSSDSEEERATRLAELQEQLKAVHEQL
Chain of CREBBP (Q92793 1081-1197): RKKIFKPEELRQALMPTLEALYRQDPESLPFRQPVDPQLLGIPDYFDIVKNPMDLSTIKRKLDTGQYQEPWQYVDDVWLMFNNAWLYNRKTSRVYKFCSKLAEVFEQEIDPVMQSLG

| Structure (SMILES) | IC50 (CREBBP) | GI50 (K-562) | GI50 (MV-4-11) | GI50 (THP-1) | IC50 (BRD3) | IC50 (BRD4) | K-562 TGI (K-562) | MV-4-11 TGI (MV-4-11) | THP-1 TGI (THP-1) |
| --- | --- | --- | --- | --- | --- | --- | --- | --- | --- |
| CNC(=O)c1cn(C)c2c1C(=O)N(c1cc(C)c3nnn(C)c3c1)C2c1ccc(Cl)cc1 (stereo not drawn) [Example 98, 6-(4-chlorophenyl)-5-(1,4-dimethyl-1H-benzo[d][1,2,3]triazol-6-yl)-N,1-dimethyl-4-oxo-1,4,5,6-tetrahydropyrrolo[3,4-b]pyrrole-3-carboxamide] | 6.7 µM | 0.0373 µM | 0.00495 µM | 0.00557 µM | 0.012 µM | < 0.011 µM | >8.2 µM | 0.01253 µM | 0.01597 µM |
| Cc1cn(C)c2c1C(=O)N(c1cc(C)c3nnc(C(F)F)n3c1)C2c1ccc(Cl)cc1 (stereo not drawn) [Example 107, 6-(4-chlorophenyl)-5-(3-(difluoromethyl)-8-methyl-[1,2,4]triazolo[4,3-a]pyridin-6-yl)-1,3-dimethyl-5,6-dihydropyrrolo[3,4-b]pyrrol-4(1H)-one] | 27.9 µM | 0.197 µM | 0.0072 µM | 0.0154 µM | 0.021 µM | 0.017 µM | >10 µM | 0.02295 µM | 0.022 µM |
| Cc1cc(N2C(=O)c3c(NC(=O)CCN(C)C)cn(C)c3C2c2ccc(Cl)cc2)nn2c(C(F)F)nnc12 (stereo not drawn) [Example 110, N-(6-(4-chlorophenyl)-5-(3-(difluoromethyl)-8-methyl-[1,2,4]triazolo[4,3-b]pyridazin-6-yl)-1-methyl-4-oxo-1,4,5,6-tetrahydropyrrolo[3,4-b]pyrrol-3-yl)-3-(dimethylamino)propanamide] | > 37 µM | 0.211 µM | 0.01 µM | 0.257 µM | 0.037 µM | 0.03 µM | 5.64 µM | 0.0255 µM | 0.2935 µM |
| Cc1cc(N2C(=O)c3c(C(=O)NCCN(C)C)cn(C)c3C2c2ccc(Cl)cc2)cc2c1nnn2C (stereo not drawn) [Example 112, 6-(4-chlorophenyl)-5-(1,4-dimethyl-1H-benzo[d][1,2,3]triazol-6-yl)-N-(2-(dimethylamino)ethyl)-1-methyl-4-oxo-1,4,5,6-tetrahydropyrrolo[3,4-b]pyrrole-3-carboxamide] | 17.3 µM | 0.409 µM | 0.0194 µM | 0.0393 µM | 0.064 µM | 0.12 µM | >10 µM | 0.03475 µM | 0.09595 µM |

Second part, led by results:

| IC50 (CREBBP) | GI50 (K-562) | GI50 (MV-4-11) | GI50 (THP-1) | IC50 (BRD3) | IC50 (BRD4) | Structure (SMILES) | K-562 TGI (K-562) | MV-4-11 TGI (MV-4-11) | THP-1 TGI (THP-1) |
| --- | --- | --- | --- | --- | --- | --- | --- | --- | --- |
| > 37 µM | 0.322 µM | 0.0432 µM | 0.0323 µM | 0.019 µM | 0.016 µM | CNC(=O)c1cn(C)c2c1C(=O)N(c1cc(C)c3nnc(C(F)F)n3n1)C2c1ccc(Cl)cc1 (stereo not drawn) [Example 108, 6-(4-chlorophenyl)-5-(3-(difluoromethyl)-8-methyl-[1,2,4]triazolo[4,3-b]pyridazin-6-yl)-N,1-dimethyl-4-oxo-1,4,5,6-tetrahydropyrrolo[3,4-b]pyrrole-3-carboxamide] | >10 µM | 0.07835 µM | 0.07275 µM |
| > 37 µM | 0.114 µM | 0.0194 µM | 0.0173 µM | 0.02 µM | 0.023 µM | CC(=O)Nc1cn(C)c2c1C(=O)N(c1cc(C)c3nnc(C(F)F)n3n1)C2c1ccc(Cl)cc1 (stereo not drawn) [Example 109, N-(6-(4-chlorophenyl)-5-(3-(difluoromethyl)-8-methyl-[1,2,4]triazolo[4,3-b]pyridazin-6-yl)-1-methyl-4-oxo-1,4,5,6-tetrahydropyrrolo[3,4-b]pyrrol-3-yl)acetamide] | >10 µM | 0.04075 µM | 0.0386 µM |
| > 37 µM | 0.113 µM | 0.0132 µM | 0.0107 µM | 0.019 µM | < 0.011 µM | CNC(=O)Nc1cn(C)c2c1C(=O)N(c1cc(C)c3nnc(C(F)F)n3n1)C2c1ccc(Cl)cc1 (stereo not drawn) [Example 111, 1-(6-(4-chlorophenyl)-5-(3-(difluoromethyl)-8-methyl-[1,2,4]triazolo[4,3-b]pyridazin-6-yl)-1-methyl-4-oxo-1,4,5,6-tetrahydropyrrolo[3,4-b]pyrrol-3-yl)-3-methylurea] | >10 µM | 0.0312 µM | 0.0301 µM |
